{"source": "patent US20100260674A1", "about": "“QUINAZOLINE DERIVATIVES AND METHODS OF TREATMENT” (Concert Pharmaceuticals, Inc., priority 2006, published 2010)", "note": "Counter-ions that a name gives are not always drawn.", "data": [{"assay": "Metabolic stability in pooled human liver microsomes", "conditions": "0.5 mg/mL HLM", "experimental": "(§1) The metabolic stability of compounds of the invention was tested using pooled liver microsomal incubations. Full scan LC-MS analysis was then performed to detect major metabolites. Samples of the test compounds, exposed to pooled human liver microsomes, were analyzed using HPLC-MS (or MS/MS) detection. For determining metabolic stability, multiple reaction monitoring (MRM) was used to measure the disappearance of the test compounds. Q1 full scans were used to detect the major metabolites.\n(§2) Experimental Procedures. Human liver microsomes (“HLM”; 20 mg/mL) are obtained from Xenotech, LLC (Lenexa, Kans.). β-nicotinamide adenine dinucleotide phosphate, reduced form (NADPH), magnesium chloride (MgCl2), and dimethyl sulfoxide (DMSO) are purchased from Sigma-Aldrich.\n(§3) Stock solutions of test compounds (7.5 mM) were prepared in DMSO. […] The 20 mg/mL human liver microsomes were diluted to 0.625 mg/mL in 0.1 M potassium phosphate buffer, pH 7.4, containing 3 mM MgCl2. The diluted microsomes (375 μL) were added to wells of a 96-well deep-well polypropylene plate in triplicate. […] Reactions were initiated by addition of 125 μL of pre-warmed NADPH solution (8 mM NADPH in 0.1M potassium phosphate buffer, pH 7.4, containing 3 mM MgCl2). […] The reaction mixtures were incubated at 37° C., and 50 μL aliquots were removed at 0, 5, 10, 20, and 30 minutes and added to shallow-well 96-well plates which contained 50 μL of ice-cold ACN with internal standard to stop the reactions. The plates were stored at 4° C. for 20 minutes after which 100 μL of water was added to the wells of the plate before centrifugation to pellet precipitated proteins. Supernatants were transferred to another 96-well plate and analyzed for amounts of parent remaining by LC-MS/MS using an Applied Bio-systems API 4000 mass spectrometer.\n(§4) The in vitro t1/2s for test compounds were calculated from the slopes of the linear regression of % parent remaining (ln) vs incubation time relationship. in vitro t1/2=0.693/k, where k=−[slope of linear regression of % parent remaining(ln) vs incubation time]. Data analysis was performed using Microsoft Excel Software.", "units": {"longer t1/2 compared to erlotinib": "%"}, "values": [{"smiles": "[2H]C([2H])([2H])OC([2H])([2H])COc1cc2ncnc(Nc3cccc(C#C)c3)c2cc1OCC([2H])([2H])OC([2H])([2H])[2H]", "note": "[Compound 109, N-(3-(Ethynyl-d1)phenyl)-6,7-bis(2-(methoxy-d3)-2,2-d2-ethoxy) quinazolin-4-amine]", "longer t1/2 compared to erlotinib": 44}]}, {"assay": "Metabolic stability in pooled human liver microsomes", "conditions": "human, microsomes, pH 7.4", "experimental": "as §1, §2, §3, §4", "units": {"half-life at 1 μM": "min"}, "values": [{"smiles": "[2H]C([2H])(COc1cc2ncnc(Nc3cccc(C#C)c3)c2cc1OCC([2H])([2H])OC)OC", "note": "[Compound 106, N-(3-ethynylphenyl)-6,7-bis(2-methoxyethoxy)quinazolin-4-amine]", "half-life at 1 μM": 43.8}, {"smiles": "[2H]C([2H])([2H])OC([2H])([2H])COc1cc2ncnc(Nc3cccc(C#C)c3)c2cc1OCC([2H])([2H])OC([2H])([2H])[2H]", "note": "[Compound 109, N-(3-(Ethynyl-d1)phenyl)-6,7-bis(2-(methoxy-d3)-2,2-d2-ethoxy) quinazolin-4-amine]", "half-life at 1 μM": 83.5}, {"smiles": "[2H]C#Cc1cccc(Nc2ncnc3cc(OCCOC)c(OCCOC)cc23)c1", "note": "[Compound 110, N-(3-(Ethynyl-d1)phenyl)-6,7-bis(2-methoxyethoxy) quinazolin-4-amine hydrochloride]", "half-life at 1 μM": 42.7}, {"smiles": "[2H]C([2H])([2H])OCCOc1cc2ncnc(Nc3cccc(C#C)c3)c2cc1OCCOC([2H])([2H])[2H]", "note": "[Compound 105, N-(3-Ethynylphenyl)-6,7-bis(2-(methoxy-d3)ethoxy)quinazolin-4-amine hydrochloride]", "half-life at 1 μM": 62.3}, {"smiles": "C#Cc1cccc(Nc2ncnc3cc(OCCOC)c(OCCOC)cc23)c1", "note": "[erlotinib, N-(3-ethynylphenyl)-6,7-bis(2-methoxyethoxy)quinazolin-4-amine, reference compound]", "half-life at 1 μM": 57.8}]}]}
